Data from PMC5943477, “A Novel Enzyme Portfolio for Red Algal Polysaccharide Degradation in the Marine Bacterium Paraglaciecola hydrolytica S66^T Encoded in a Sizeable Polysaccharide Utilization Locus” (Frontiers in Microbiology, 2018).

Tests used:
Format in all cases: biochemical
Ph1631 (GH16) = target: T1, Ph1631 (GH16) (Paraglaciecola hydrolytica, UniProt A0A136A0U8); test: TLC of hydrolysis products from agarose, crude recombinant lysate; conditions: 25 °C overnight, pH 8; agarose 0.05% w/v
T1 construct: gene AX660_11645; full gene without any predicted signal peptide, pET22b NdeI/XhoI, E. coli BL21(DE3) crude lysate
T1 sequence (A0A136A0U8 20-293): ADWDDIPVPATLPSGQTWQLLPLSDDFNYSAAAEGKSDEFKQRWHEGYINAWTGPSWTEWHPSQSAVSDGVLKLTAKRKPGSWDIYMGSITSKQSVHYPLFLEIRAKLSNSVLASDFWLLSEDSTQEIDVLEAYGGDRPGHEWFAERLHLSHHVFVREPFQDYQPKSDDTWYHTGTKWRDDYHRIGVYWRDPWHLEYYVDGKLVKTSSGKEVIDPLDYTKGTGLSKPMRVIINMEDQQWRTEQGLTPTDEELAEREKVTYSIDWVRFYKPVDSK

Ph1664 (GH16) = target: T2, Ph1664 (GH16) (Paraglaciecola hydrolytica, UniProt A0A136A0V5); test: FACE (ANTS label) of hydrolysis products from κ-carrageenan and furcellaran, crude recombinant lysate; conditions: 25 °C overnight, pH 8, 300 mM NaCl, 5 mM MgCl2; polysaccharide 0.05% w/v
T2 construct: gene AX660_11805; full gene without any predicted signal peptide, pET9a-USER vector (octa-His tag), E. coli BL21(DE3) crude lysate
T2 sequence (A0A136A0V5 20-322): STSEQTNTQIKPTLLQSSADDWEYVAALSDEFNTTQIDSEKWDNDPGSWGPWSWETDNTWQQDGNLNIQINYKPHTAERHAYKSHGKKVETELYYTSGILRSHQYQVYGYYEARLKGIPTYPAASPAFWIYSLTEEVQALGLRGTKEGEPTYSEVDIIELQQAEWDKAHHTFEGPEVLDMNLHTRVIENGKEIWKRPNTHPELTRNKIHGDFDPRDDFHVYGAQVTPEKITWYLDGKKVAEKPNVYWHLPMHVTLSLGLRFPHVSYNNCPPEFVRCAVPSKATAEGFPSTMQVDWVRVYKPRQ

Ph1675 (GH16) = target: T3, Ph1675 (GH16) (Paraglaciecola hydrolytica, UniProt A0A136A0W8); test: FACE (ANTS label) of hydrolysis products, crude recombinant lysate; conditions: 25 °C overnight, pH 8, lysis buffer with 5 mM CaCl2
T3 construct: gene AX660_11860; full gene without any predicted signal peptide, pET9a-USER vector (octa-His tag), E. coli BL21(DE3) crude lysate
T3 sequence (A0A136A0W8 35-349): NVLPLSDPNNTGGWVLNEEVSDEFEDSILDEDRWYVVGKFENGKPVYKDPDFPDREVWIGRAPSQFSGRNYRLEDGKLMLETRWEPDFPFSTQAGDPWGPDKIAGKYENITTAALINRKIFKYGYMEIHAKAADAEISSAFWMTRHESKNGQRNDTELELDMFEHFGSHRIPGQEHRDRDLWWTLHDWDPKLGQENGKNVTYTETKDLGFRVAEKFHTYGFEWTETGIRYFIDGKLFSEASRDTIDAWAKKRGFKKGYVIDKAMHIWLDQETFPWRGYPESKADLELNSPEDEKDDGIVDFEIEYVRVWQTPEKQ

Ph1657 (GH42-like) = target: T4, Ph1657 (GH42-like) (Paraglaciecola hydrolytica, UniProt A0A136A0V1); test: FACE (AMAC label) of hydrolysis products, crude recombinant lysate; conditions: 25 °C overnight, pH 8, oligosaccharide 2 μg/μL
T4 construct: gene AX660_11775; full gene without any predicted signal peptide, pET9a-USER vector (octa-His tag), E. coli BL21(DE3) crude lysate
T4 sequence (A0A136A0V1 21-810): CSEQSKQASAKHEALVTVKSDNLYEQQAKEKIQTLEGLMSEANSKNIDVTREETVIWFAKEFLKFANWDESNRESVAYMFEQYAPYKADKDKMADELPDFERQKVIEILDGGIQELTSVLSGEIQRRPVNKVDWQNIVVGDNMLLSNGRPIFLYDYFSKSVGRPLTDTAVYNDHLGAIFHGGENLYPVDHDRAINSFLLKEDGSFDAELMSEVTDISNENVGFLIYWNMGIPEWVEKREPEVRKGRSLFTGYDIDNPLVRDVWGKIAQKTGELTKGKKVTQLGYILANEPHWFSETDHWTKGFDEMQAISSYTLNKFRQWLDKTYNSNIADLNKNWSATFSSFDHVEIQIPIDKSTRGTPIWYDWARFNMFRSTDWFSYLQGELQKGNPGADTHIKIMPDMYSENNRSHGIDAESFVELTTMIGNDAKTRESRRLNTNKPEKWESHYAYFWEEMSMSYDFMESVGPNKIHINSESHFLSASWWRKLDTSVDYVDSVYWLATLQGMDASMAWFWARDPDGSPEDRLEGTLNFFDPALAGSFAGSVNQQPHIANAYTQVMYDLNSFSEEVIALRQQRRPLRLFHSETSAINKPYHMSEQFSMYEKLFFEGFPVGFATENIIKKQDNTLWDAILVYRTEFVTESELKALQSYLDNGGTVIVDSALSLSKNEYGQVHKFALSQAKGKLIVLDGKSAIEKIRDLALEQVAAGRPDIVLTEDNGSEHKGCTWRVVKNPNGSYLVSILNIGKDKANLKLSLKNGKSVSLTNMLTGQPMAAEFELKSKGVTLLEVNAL

Ph1615 (GH117) = target: T5, Ph1615 (GH117) (Paraglaciecola hydrolytica, UniProt A0A136A0T3); test: TLC of hydrolysis products, crude recombinant lysate; conditions: 25 °C overnight, pH 8
T5 construct: gene AX660_11560; full gene without any predicted signal peptide, pET9a-USER vector (octa-His tag), E. coli BL21(DE3) crude lysate
T5 sequence (A0A136A0T3 1-359): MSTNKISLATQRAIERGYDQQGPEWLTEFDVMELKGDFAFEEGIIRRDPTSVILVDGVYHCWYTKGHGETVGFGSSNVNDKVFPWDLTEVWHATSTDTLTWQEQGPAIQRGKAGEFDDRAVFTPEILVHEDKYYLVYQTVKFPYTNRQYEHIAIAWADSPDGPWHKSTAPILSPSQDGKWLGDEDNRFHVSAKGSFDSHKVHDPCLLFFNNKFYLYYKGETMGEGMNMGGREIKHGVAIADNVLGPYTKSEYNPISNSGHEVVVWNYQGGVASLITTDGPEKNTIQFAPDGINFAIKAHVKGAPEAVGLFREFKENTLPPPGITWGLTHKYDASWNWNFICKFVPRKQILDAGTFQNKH

## OC[C@H]1O[C@@H](O[C@H]2[C@H]3OC[C@@H]2O[C@@H](O[C@H]2[C@@H](O)[C@@H](CO)OC(O)[C@@H]2O)[C@H]3O)[C@H](O)[C@@H](O[C@@H]2O[C@H]3CO[C@@H]([C@@H]2O)[C@@H]3O)[C@H]1O (stereo partly drawn) [neoagarotetraose]
Ph1631 (GH16)
  TLC of hydrolysis products from agarose, crude recombinant lysate: Ph1631 degraded agarose into primarily neoagarotetraose

## O=S(=O)(O)O[C@@H]1[C@H](O[C@H]2O[C@@H]3CO[C@@H]([C@H]3O)[C@H]2O)[C@@H](O)[C@H](O[C@@H]2[C@@H]3OC[C@H]2O[C@H](O[C@H]2[C@@H](OS(=O)(=O)O)[C@@H](CO)OC(O)[C@@H]2O)[C@@H]3O)O[C@@H]1CO (stereo partly drawn) [κ-κ, neo-κ-carratetraose]
Ph1664 (GH16)
  FACE (ANTS label) of hydrolysis products from κ-carrageenan and furcellaran, cru: releasing hydrolysis products corresponding to neo-κ-carrabiose (κ), neo-κ-carratetraose (κ-κ)

## O=S(=O)(O)O[C@@H]1[C@H](O[C@H]2O[C@@H]3CO[C@@H]([C@H]3O)[C@H]2O)[C@@H](O)C(O)O[C@@H]1CO (stereo partly drawn) [κ, neo-κ-carrabiose]
Ph1664 (GH16)
  FACE (ANTS label) of hydrolysis products from κ-carrageenan and furcellaran, cru: releasing hydrolysis products corresponding to neo-κ-carrabiose (κ), neo-κ-carratetraose (κ-κ)

## O=S(=O)(O)O[C@@H]1[C@H](O[C@H]2O[C@@H]3CO[C@H]([C@H]2O)[C@H]3O[C@@H]2O[C@H](CO)[C@H](O)[C@H](O[C@H]3O[C@@H]4CO[C@@H]([C@H]4O)[C@H]3O)[C@H]2O)[C@@H](O)C(O)O[C@@H]1CO (stereo partly drawn) [β-κ, β-κ tetrasaccharide]
Ph1675 (GH16)
  FACE (ANTS label) of hydrolysis products, crude recombinant lysate: it was found to degrade the substrate into the corresponding β- and κ-carrabiose units
Ph1657 (GH42-like)
  FACE (AMAC label) of hydrolysis products, crude recombinant lysate: when tested on a commercial β-κ tetrasaccharide, this substrate was indeed hydrolyzed into (β) and (κ)

## OC[C@H]1OC(O)[C@H](O)[C@@H](O[C@@H]2O[C@H]3CO[C@@H]([C@@H]2O)[C@@H]3O)[C@H]1O (stereo partly drawn) [neoagarobiose]
Ph1615 (GH117)
  TLC of hydrolysis products, crude recombinant lysate: Ph1615 (GH117) was able to hydrolyze neoagarobiose yielding L-AHG and galactose
